# Test: recombinant barcode read abundance after kanamycin selection (control-corrected) (log10(CPM+1)); higher = more efficient recombination; sequences stand for … in AGTGCAGAGAAAATCGGCCAGTTTTCTCTGCCTGCAGTCCGCATGCCGT…AGATTTATGCAGCGGACTGCCTTTCTCCCAAAGTGATAAACCGGACAGTATCATGGACCGGTTTTCCCGGTAATCCGTATTTGCAAGGTTGGTTTCACT; site = the 11-nt target
# Method in brief: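 In E. coli, a pooled library matched targets to IS621 bridge RNA target-binding loops and was introduced alongside a donor plasmid. Cells went onto chloramphenicol/ampicillin/kanamycin with 0.1 mM IPTG or onto chloramphenicol/ampicillin LB agar as control, in duplicate. Recombination efficiency, from recombinant-junction barcodes as counts per million, is averaged and control-corrected. It is reported as log10(CPM+1).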
# 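Also: IS621 recombinase and bridge RNA in Escherichia coli cells.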
row,Sequence,recombinant barcode read abundance (log10)
1,CTGGAACCTTGGGTTCTAACCTGTTGCGG (site CTAGAAGCTCC),0
2,CTGGAACCTTGGGTTCTAACCTGTTGCGG (site CTGGAACCTCC),1.25
3,CTGGAGTCTTGGGTTCTAACCTGTTGCCT (site CTGGAGTCTAG),2.33
4,CTGGAGTCTTGGGTTCTAACCTGTTGCCT (site CTGGCGTCTAG),0.322
5,CTGGAGTCTTGGGTTCTAACCTGTTGCCT (site CTGGGGTCTAG),0.412
6,CTGGAGTCTTGGGTTCTAACCTGTTGCCT (site CTGGTGTCTAG),0.793
7,CTGGTATCTTGGGTTCTAACCTGTTGCTT (site CTGGTATCTAA),0.509
8,CTGGTATCTTGGGTTCTAACCTGTTGCTT (site GGCTACCCTTT),0.0591
9,CTGGTGTCTTGGGTTCTAACCTGTTGCCT (site CTGGAGTCTAG),0.0957
10,CTGGTGTCTTGGGTTCTAACCTGTTGCCT (site CTGGCGTCTAG),0.248
11,CTGGTGTCTTGGGTTCTAACCTGTTGCCT (site CTGGGGTCTAG),0.0939
12,CTGGTGTCTTGGGTTCTAACCTGTTGCCT (site CTGGTGTCTAG),2.42
13,CTGTATACTTGGGTTCTAACCTGTTGCCA (site CTATATACTTG),0.113
14,CTGTATACTTGGGTTCTAACCTGTTGCCA (site CTGTATACTTG),0.175
15,CTGTCGCCTTGGGTTCTAACCTGTTGCCT (site CTATCGCCTAG),0.699
16,CTGTCGCCTTGGGTTCTAACCTGTTGCCT (site CTCTCGCCTAG),0.0526
17,CTGTCGCCTTGGGTTCTAACCTGTTGCCT (site CTGTCGCCTAG),0.276
18,CTGTCGCCTTGGGTTCTAACCTGTTGCCT (site CTTTCGCCTAG),0.0305
19,CTGTCTCCTTGGGTTCTAACCTGTTGCCT (site ATGTCTCCTAG),0.221
20,CTGTCTCCTTGGGTTCTAACCTGTTGCCT (site CTGTCTCCTAG),1.29
21,CTGTCTCCTTGGGTTCTAACCTGTTGCCT (site GTGTCTCCTAG),0.0715
22,CTGTCTCCTTGGGTTCTAACCTGTTGCCT (site TTGTCTCCTAG),0.3

row,Sequence,recombinant barcode read abundance (log10)
1,CTGTGAACTTGGGTTCTAACCTGTTGCCT (site CAGTGAACTAG),0.128
2,CTGTGAACTTGGGTTCTAACCTGTTGCCT (site CCGTGAACTAG),0.133
3,CTGTGAACTTGGGTTCTAACCTGTTGCCT (site CGGTGAACTAG),0.216
4,CTGTGAACTTGGGTTCTAACCTGTTGCCT (site CTGTGAACTAG),0.679
5,CTGTGCCCTTGGGTTCTAACCTGTTGCCT (site CTGAGCCCTAG),0.105
6,CTGTGCCCTTGGGTTCTAACCTGTTGCCT (site CTGCGCCCTAG),0.0771
7,CTGTGCCCTTGGGTTCTAACCTGTTGCCT (site CTGGGCCCTAG),0.0673
8,CTGTGCCCTTGGGTTCTAACCTGTTGCCT (site CTGTGCCCTAG),0.574
9,CTGTTCCCTTGGGTTCTAACCTGTTGCGG (site CTGATCCCTCC),0.291
10,CTGTTCCCTTGGGTTCTAACCTGTTGCGG (site CTGCTCCCTCC),0.797
11,CTGTTCCCTTGGGTTCTAACCTGTTGCGG (site CTGGTCCCTCC),0.129
12,CTGTTCCCTTGGGTTCTAACCTGTTGCGG (site CTGTTCCCTCC),1.05
13,CTTACGGCTTGGGTTCTAACCTGTTGCCT (site CTTACAGCTAG),0.186
14,CTTACGGCTTGGGTTCTAACCTGTTGCCT (site CTTACCGCTAG),0.196
15,CTTACGGCTTGGGTTCTAACCTGTTGCCT (site CTTACGGCTAG),0.0569
16,CTTACGGCTTGGGTTCTAACCTGTTGCCT (site CTTACTGCTAG),0.262
17,CTTCATCCTTGGGTTCTAACCTGTTGCCT (site CTTCAACCTAG),0.0199
18,CTTCATCCTTGGGTTCTAACCTGTTGCCT (site CTTCACCCTAG),0.34
19,CTTCATCCTTGGGTTCTAACCTGTTGCCT (site CTTCAGCCTAG),0.0613
20,CTTCATCCTTGGGTTCTAACCTGTTGCCT (site CTTCATCCTAG),0.466
21,CTTCGGACTTGGGTTCTAACCTGTTGCTT (site CTTCGGACTAA),0.769

# — the supplement of paper PMC11208160
